Laboratory results published in patent US12419307B2, “Mixtures comprising indazole pesticides” (FMC Corporation, priority 2019, dated 2025).
Read-outs that look alike come from different tables or passages of the source.

Legend:
Type in all cases: in vivo
[1] = tested on: corn planthopper (Peregrinus maidis (Ashmead)); assay: Test C: corn planthopper control on corn plants, insect mortality after 6 days; settings: Peregrinus maidis, read-out: % Mortality (obs)
Method: (§1) The pest control protection afforded by the mixtures or compositions is not limited, however, to these species. The analysis of enhanced activity between the mixtures or compositions was determined using Colby's equation. The average % mortality data for the test compounds alone were inserted into the Colby's equation. If the observed (obs) average % mortality was higher than “p”, the expected (exp) % mortality, the mixture or composition had enhanced effects. If the observed average % mortality was equal to or lower than the expected mortality, the mixture or composition either had no enhanced effect. For bioassays where insect feeding damage was evaluated, enhanced activity is identified when the observed plant damage is less than the expected plant damage rating; ratings ranged between 0 (no damage) and 10 (dead plant) and each value was converted to a % plant protection. 100−(Obs Plant Damage*10)
For evaluating control of corn planthopper (Peregrinus maidis (Ashmead)) through contact and/or systemic means, the test unit consisted of a small open container with a 3-4-day-old corn (maize) plant inside. White sand was added to the top of the soil prior to application of the test compound.
Test compounds were formulated and sprayed at 250 and/or 50 ppm and/or 10 ppm. After spraying of the formulated test compound, the test units were allowed to dry for 1 h before they were post-infested with ˜15-20 nymphs (18-to-21-day-old). […]

[2] = tested on: diamondback moth (Plutella xylostella L.); assay: Test E: diamondback moth control through ingestion only, sprayed cabbage leaf tissue (Dipel), mortality after 4 days; settings: Table 6c, read-out: % Mortality (obs)
Method: as §1
For evaluating control of diamondback moth (Plutella xylostella L.) through ingestion only, the test substance Dipel® (active ingredient Bacillus thuringiensis kurstaki) was formulated by diluting in water and then adding an MSO based adjuvant at 0.1% v/v. Cabbage plants were sprayed with Dipel® to runoff and allowed to dry for three hours. Once dry, plants leaf tissue was excised and one piece was placed into one well in an eight well tray. Test units were maintained in a growth chamber at 24-25° C. and 70% relative humidity.

[3] = tested on: Potato Leafhopper (Empoasca fabae Harris); assay: Test C: Potato Leafhopper control on bean plants, insect mortality after 6 days; settings: read-out: % Mortality (obs)
Method: as §1
For evaluating control of Potato Leafhopper (Empoasca fabae Harris) through contact and/or systemic means, each test unit consisted of a small open container with a 5- to 6-day-old Longio bean plant (primary leaves emerged) inside. White sand was added to the top of the soil, and one of the primary leaves was excised prior to application. Test compounds were formulated and sprayed with 3 replications as described for Test A. After spraying, the test units were allowed to dry for 1 hour before they were infested with 5 potato leafhoppers (18- to 21-day-old adults). A black, screened cap was placed on the top of each container. The test units were held for 6 days in a growth chamber at 19-21° C. and 50-70% relative humidity.

[4] = tested on: Western Flower Thrips (Frankliniella occidentalis Pergande); assay: Test B: Western Flower Thrips control on bean plants, plant damage rating converted to % plant protection after 7 days; settings: for pest or weed control at 0.4 ppm / pest or weed control at 2 ppm / pest or weed control at 3.18 ppm / pest or weed control at 9.75 ppm / pest or weed control at 1.5 ppm / pest or weed control at 4.5 ppm / pest or weed control at 2.93 ppm / pest or weed control at 16.1 ppm: Frankliniella occidentalis, 168 h, read-out: Plant Protection (obs); for Plant Damage (obs): Table 3a; for Plant Damage (obs) / Plant Protection (obs): applied alone
Method: as §1
Thus, a plant given a plant damage rating of 3 out of 10 is equivalent to 70% plant protection In all of these tests, compounds of Formula I are Compounds 1 (Cpd 1), 2 (Cpd2), and 3 (Cpd3) and compounds of Formula II are compounds 4 (Cpd4) and 5 (Cpd 5).
For evaluating control of the Western Flower Thrips (Frankliniella occidentalis Pergande) through contact and/or systemic means, each test unit consisted of a small open container with a 5- to 7-day-old bean (var. Soleil) plant inside.
Test solutions were formulated and sprayed with 3 replications as described for Test A. After spraying, the test units were allowed to dry for 1 hour, 22 to 27 adult thrips were added to each unit and then a black, screened cap was placed on top. The test units were held for 7 days at 25° C. and 45-55% relative humidity. To evaluate the level of plant protection provided by each treatment, each test unit was then visually assessed for plant damage inflicted by insect feeding and rated 0-10, where 0=undamaged and 10=plant is dead; the results are listed in Tables 3a-g.

`O=C(NC1(C(F)F)CC1)c1cccc2nn(-c3cccnc3)cc12` [Cpd 5, N-[1-(difluoromethyl)cyclopropyl]-2-(3-pyridinyl)-2H-indazole-4-carboxamide] showed a mortality at 50 ppm ([1]; 96 h, Table 4d) of 5.3%, a mortality at 250 ppm ([1]; 96 h, Table 4d) of 75% and a mortality at 50 ppm ([1]; Table 4e) of 21.6%. The mortality at 250 ppm ([1]; Table 4e) was 13.1%, the mortality at 50 ppm ([1]; Table 4f) was 15.3% and the mortality at 250 ppm ([1]; Table 4f) was 22.4%. It also gave a mortality at 50 ppm ([1]; Table 4g) of 15.3%, a mortality at 250 ppm ([1]; Table 4g) of 22.4% and a mortality at 50 ppm ([2]; 50 ppm) of 21%. For the same compound, the mortality at 250 ppm ([2]; 250 ppm) was 25%, the mortality at 50 ppm ([3]; Table 4a) was 0% and the mortality at 250 ppm ([3]; Table 4a) was 26.7%. The mortality at 50 ppm ([3]; Table 4b) was 0%, the mortality at 250 ppm ([3]; Table 4b) was 6.7% and the mortality at 50 ppm ([3]; Table 4c) was 6.7%. The mortality at 250 ppm ([3]; Table 4c) was 26.7%, the pest or weed control at 0.4 ppm ([4]; Table 3e, 0.4 ppm) was 70% and the pest or weed control at 2 ppm ([4]; Table 3e, 2 ppm) was 26.7%. It also gave a pest or weed control at 0.4 ppm ([4]; Table 3f, 0.4 ppm) of 33.3%, a pest or weed control at 2 ppm ([4]; Table 3f, 2 ppm) of 60% and a pest or weed control at 0.4 ppm ([4]; Table 3g, 0.4 ppm) of 13.3%. For the same compound, the pest or weed control at 2 ppm ([4]; Table 3g, 2 ppm) was 26.7%, the pest or weed control at 0.4 ppm ([4]; Table 3d, 0.4 ppm) was 43.3% and the pest or weed control at 2 ppm ([4]; Table 3d, 2 ppm) was 63.3%. For the same compound, the “Plant Damage (obs)” value ([4]; 0.4 ppm) was 20.0%, the “Plant Damage (obs)” value ([4]; 2 ppm) was 40.0% and the “Plant Protection (obs)” value ([4]; Table 3b, 0.4 ppm) was 23.3%. The “Plant Protection (obs)” value ([4]; Table 3b, 2 ppm) was 36.7%, the “Plant Protection (obs)” value ([4]; Table 3c, 0.4 ppm) was 16.7% and the “Plant Protection (obs)” value ([4]; Table 3c, 2 ppm) was 40.0%.
Compound `CSCC(C)(C)NC(=O)c1ccc(F)c2nn(-c3cccnc3)cc12` [Cpd 1, N-[1,1-dimethyl-2-(methylthio)ethyl]-7-fluoro-2-(3-pyridinyl)-2H-indazole-4-carboxamide] has a mortality at 50 ppm ([1]; 96 h, Table 4d) of 14.8%, a mortality at 250 ppm ([1]; 96 h, Table 4d) of 45.8% and a mortality at 50 ppm ([1]; Table 4e) of 18.9%. The mortality at 250 ppm ([1]; Table 4e) was 7.6%, the mortality at 50 ppm ([3]; Table 4a) was 60% and the mortality at 250 ppm ([3]; Table 4a) was 35.7%. For the same compound, the mortality at 50 ppm ([3]; Table 4b) was 20%, the mortality at 250 ppm ([3]; Table 4b) was 6.7% and the mortality at 50 ppm ([3]; Table 4c) was 6.7%. It also gave a mortality at 250 ppm ([3]; Table 4c) of 33.3%, a pest or weed control at 3.18 ppm ([4]; Table 3e, 3.18 ppm) of 76.7% and a pest or weed control at 9.75 ppm ([4]; Table 3e, 9.75 ppm) of 66.7%. For the same compound, the pest or weed control at 3.18 ppm ([4]; Table 3f, 3.18 ppm) was 33.3%, the pest or weed control at 9.75 ppm ([4]; Table 3f, 9.75 ppm) was 80% and the pest or weed control at 3.18 ppm ([4]; Table 3g, 3.18 ppm) was 10%. It also gave a pest or weed control at 9.75 ppm ([4]; Table 3g, 9.75 ppm) of 76.7%, a pest or weed control at 3.18 ppm ([4]; Table 3d, 3.18 ppm) of 63.3% and a pest or weed control at 9.75 ppm ([4]; Table 3d, 9.75 ppm) of 90%. The “Plant Damage (obs)” value ([4]; 3.18 ppm) was 33.3%, the “Plant Damage (obs)” value ([4]; 9.75 ppm) was 73.3% and the “Plant Protection (obs)” value ([4]; Table 3b, 3.18 ppm) was 73.3%. The “Plant Protection (obs)” value ([4]; Table 3b, 9.75 ppm) was 76.7%, the “Plant Protection (obs)” value ([4]; Table 3c, 3.18 ppm) was 63.3% and the “Plant Protection (obs)” value ([4]; Table 3c, 9.75 ppm) was 83.3%.
In the case of `C[S+]([O-])CC(C)(C)NC(=O)c1ccc(F)c2nn(-c3cccnc3)cc12` (stereo not shown) [Cpd 2, N-[1,1-dimethyl-2-(methylsulfinyl)ethyl]-7-fluoro-2-(3-pyridinyl)-2H-indazole-4-carboxamide], the mortality at 50 ppm ([1]; 96 h, Table 4d) is reported as 0%, the mortality at 250 ppm ([1]; 96 h, Table 4d) is reported as 54.1% and the mortality at 50 ppm ([1]; Table 4e) is reported as 7.3%. For the same compound, the mortality at 250 ppm ([1]; Table 4e) was 22.4%, the mortality at 50 ppm ([3]; Table 4a) was 46.7% and the mortality at 250 ppm ([3]; Table 4a) was 86.7%. It also gave a mortality at 50 ppm ([3]; Table 4b) of 6.7%, a mortality at 250 ppm ([3]; Table 4b) of 85.7% and a mortality at 50 ppm ([3]; Table 4c) of 20%. It also gave a mortality at 250 ppm ([3]; Table 4c) of 73.3%, a pest or weed control at 1.5 ppm ([4]; Table 3e, 1.5 ppm) of 66.7% and a pest or weed control at 4.5 ppm ([4]; Table 3e, 4.5 ppm) of 43.3%. For the same compound, the pest or weed control at 1.5 ppm ([4]; Table 3f, 1.5 ppm) was 43.3%, the pest or weed control at 4.5 ppm ([4]; Table 3f, 4.5 ppm) was 73.3% and the pest or weed control at 1.5 ppm ([4]; Table 3g, 1.5 ppm) was 16.7%. It also gave a pest or weed control at 4.5 ppm ([4]; Table 3g, 4.5 ppm) of 33.3%, a pest or weed control at 1.5 ppm ([4]; Table 3d, 1.5 ppm) of 36.7% and a pest or weed control at 4.5 ppm ([4]; Table 3d, 4.5 ppm) of 76.7%. For the same compound, the “Plant Damage (obs)” value ([4]; 1.5 ppm) was 13.3%, the “Plant Damage (obs)” value ([4]; 4.5 ppm) was 56.7% and the “Plant Protection (obs)” value ([4]; Table 3b, 1.5 ppm) was 16.7%. For the same compound, the “Plant Protection (obs)” value ([4]; Table 3b, 4.5 ppm) was 83.3%, the “Plant Protection (obs)” value ([4]; Table 3c, 1.5 ppm) was 43.3% and the “Plant Protection (obs)” value ([4]; Table 3c, 4.5 ppm) was 80.0%.
Work on `CC(C)(CS(C)(=O)=O)NC(=O)c1ccc(F)c2nn(-c3cccnc3)cc12` [Cpd 3, N-[1,1-dimethyl-2-(methylsulfonyl)ethyl]-7-fluoro-2-(3-pyridinyl)-2H-indazole-4-carboxamide] yielded a mortality at 50 ppm ([1]; 96 h, Table 4d) of 8.3%, a mortality at 250 ppm ([1]; 96 h, Table 4d) of 0% and a mortality at 50 ppm ([1]; Table 4e) of 5%. The mortality at 250 ppm ([1]; Table 4e) was 1.2%, the mortality at 50 ppm ([3]; Table 4a) was 0% and the mortality at 250 ppm ([3]; Table 4a) was 0%. The mortality at 50 ppm ([3]; Table 4b) was 13.3%, the mortality at 250 ppm ([3]; Table 4b) was 0% and the mortality at 50 ppm ([3]; Table 4c) was 6.7%. It also gave a mortality at 250 ppm ([3]; Table 4c) of 0%, a pest or weed control at 2.93 ppm ([4]; Table 3e, 2.93 ppm) of 83.3% and a pest or weed control at 16.1 ppm ([4]; Table 3e, 16.1 ppm) of 80%. The pest or weed control at 2.93 ppm ([4]; Table 3f, 2.93 ppm) was 40%, the pest or weed control at 16.1 ppm ([4]; Table 3f, 16.1 ppm) was 86.7% and the pest or weed control at 2.93 ppm ([4]; Table 3g, 2.93 ppm) was 43.3%. The pest or weed control at 16.1 ppm ([4]; Table 3g, 16.1 ppm) was 70%, the “Plant Damage (obs)” value ([4]; 2.93 ppm) was 13.3% and the “Plant Damage (obs)” value ([4]; 16.1 ppm) was 83.3%. For the same compound, the “Plant Protection (obs)” value ([4]; Table 3b, 2.93 ppm) was 40.0%, the “Plant Protection (obs)” value ([4]; Table 3b, 16.1 ppm) was 76.7% and the “Plant Protection (obs)” value ([4]; Table 3c, 2.93 ppm) was 33.3%. The “Plant Protection (obs)” value ([4]; Table 3c, 16.1 ppm) was 80.0%.
